Experimental data: patent publication US8299081B2, “Methods for treating drug resistant cancer” (Novartis AG, priority 2005, dated 2012)
Converted amounts (≈) assume the structure as drawn. Read-outs that look alike come from different tables or passages of the source.

Key:
[1] = test system: MV4;11 cells; assay: Intravenous bone marrow (BM) engraftment model MV4;11; assay type: in vivo, SCID-NOD mice
Method: For processing of bone marrow (BM) cells from the mouse MV4;11 engraftment model, femurs were purged with cold saline and red blood cells lysed with FACS lysis buffer (Becton Dickinson). Percent engraftment of human leukemic cells in mouse BM was determined by staining with anti-human HLA-A,B,C-FITC (vs. isotype-matched antibody-FITC control) (BD Pharmingen).
[…]. […] Mice were monitored daily and were euthanized when moribund or early signs of loss of hind limb motility. Increased life span (ILS) of treated mice was calculated as a percent increase in median survival time (MST) vs. vehicle treated control mice.
. In this model, MV4;11 cells disseminate to the bone marrow (BM), pathologically mimicking a disease pattern similar to human leukemia. […]. Histological analyses and flow cytometry were used to quantify the % engraftment of MV4;11 cells in BM (FIG. 21). In flow cytometric analyses, human MV4;11 cells were identified in mouse BM with an anti-human HLA-A,B,C antibody which binds to an epitope on human MHCl. In vehicle-treated mice, approximately 2-19% of total isolated BM cells consisted of engrafted MV4;11 cells (day 51, FIG. 21-a). This was also corroborated by immunohistochemistry with an antibody to human mitochondria which stains MV4;11 cells identifying the human cells in the mouse BM matrix (FIG. 21-b,c). […].

[2] = test system: RS4;11 tumors; assay: Subcutaneous RS4;11 tumor xenograft model; assay type: in vivo, SCID-NOD mice
[3] = test system: KM12L4A human colon tumor xenografts; assay: KM12L4A human colon tumor xenografts; assay type: in vivo, nude mice; conditions: large established tumors 500 or 1000 mm^3, dosed daily
Source text: These compounds have also shown oral activity in a variety of angiogenesis tumor and metastases animal models.

[4] = test system: MV4;11 tumors; assay: Subcutaneous MV4;11 tumor xenograft model; assay type: in vivo, SCID-NOD mice
[5] = test system: advanced solid malignancies; assay: Phase I dose escalating study: anti-tumor activity; assay type: in vivo, human
Method: (§1) Phase I dose escalating multi-center open label studies were conducted to evaluate the safety, pharmacokinetics, and pharmacodynamics of Compound 1 in subjects with advanced solid malignancies. Further primary objectives of the studies included: 1) determining the Maximum Tolerated Dose (MTD); 2) identifying Dose Limiting Toxicity (DLT); and 3) assessing safety provil in subject with advanced solid tumors. Secondary objectives of the study included: 1) evaluating pharmacokinetics; 2) evaluating pharmacodynamics in plasma, peripheral blood lymphocytes, urine, and tumor cells; 3) recommending dose and schedule for future investigations; and 4) determining evidence of anti-tumor activity (RECIST). Details regarding this study are set forth below […]

[6] = human, in vivo
Method: as §1

[7] = molecular target: P-glycoprotein (Homo sapiens, UniProt P08183); assay: P-GP substrate status; assay type: in vitro ADME
[8] = test system: pSTAT5 in MV4;11 tumors; assay: Target modulation in vivo: pSTAT5 in MV4;11 tumors; conditions: Mus musculus
[9] = parameters: species or system human; conditions: in vivo
Method: Phase I dose escalating multi-center open label studies were conducted to evaluate the safety, pharmacokinetics, and pharmacodynamics of Compound 1 in subjects with advanced solid malignancies. Further primary objectives of the studies included: 1) determining the Maximum Tolerated Dose (MTD); 2) identifying Dose Limiting Toxicity (DLT); and 3) assessing safety provil in subject with advanced solid tumors. Secondary objectives of the study included: 1) evaluating pharmacokinetics; 2) evaluating pharmacodynamics in plasma, peripheral blood lymphocytes, urine, and tumor cells; 3) recommending dose and schedule for future investigations; and 4) determining evidence of anti-tumor activity (RECIST). Details regarding this study are set forth below
[…]. Plasma exposure in the 100 mg dose group approaches the range where preclinical efficacy has been noted.

[10] = test system: melphalan-resistant L1210 murine leukemia cells; conditions: cited from earlier work
[11] = test system: L1210 murine leukemia cells (parental line); conditions: cited from earlier work
[12] = MV4;11, 30 mg/kg/d, dose-response study
[13] = large MV4;11 tumors 300, 500 or 1000 mm^3, 30 mg/kg/d, n=27

Sequence of P-glycoprotein (P08183 whole entry): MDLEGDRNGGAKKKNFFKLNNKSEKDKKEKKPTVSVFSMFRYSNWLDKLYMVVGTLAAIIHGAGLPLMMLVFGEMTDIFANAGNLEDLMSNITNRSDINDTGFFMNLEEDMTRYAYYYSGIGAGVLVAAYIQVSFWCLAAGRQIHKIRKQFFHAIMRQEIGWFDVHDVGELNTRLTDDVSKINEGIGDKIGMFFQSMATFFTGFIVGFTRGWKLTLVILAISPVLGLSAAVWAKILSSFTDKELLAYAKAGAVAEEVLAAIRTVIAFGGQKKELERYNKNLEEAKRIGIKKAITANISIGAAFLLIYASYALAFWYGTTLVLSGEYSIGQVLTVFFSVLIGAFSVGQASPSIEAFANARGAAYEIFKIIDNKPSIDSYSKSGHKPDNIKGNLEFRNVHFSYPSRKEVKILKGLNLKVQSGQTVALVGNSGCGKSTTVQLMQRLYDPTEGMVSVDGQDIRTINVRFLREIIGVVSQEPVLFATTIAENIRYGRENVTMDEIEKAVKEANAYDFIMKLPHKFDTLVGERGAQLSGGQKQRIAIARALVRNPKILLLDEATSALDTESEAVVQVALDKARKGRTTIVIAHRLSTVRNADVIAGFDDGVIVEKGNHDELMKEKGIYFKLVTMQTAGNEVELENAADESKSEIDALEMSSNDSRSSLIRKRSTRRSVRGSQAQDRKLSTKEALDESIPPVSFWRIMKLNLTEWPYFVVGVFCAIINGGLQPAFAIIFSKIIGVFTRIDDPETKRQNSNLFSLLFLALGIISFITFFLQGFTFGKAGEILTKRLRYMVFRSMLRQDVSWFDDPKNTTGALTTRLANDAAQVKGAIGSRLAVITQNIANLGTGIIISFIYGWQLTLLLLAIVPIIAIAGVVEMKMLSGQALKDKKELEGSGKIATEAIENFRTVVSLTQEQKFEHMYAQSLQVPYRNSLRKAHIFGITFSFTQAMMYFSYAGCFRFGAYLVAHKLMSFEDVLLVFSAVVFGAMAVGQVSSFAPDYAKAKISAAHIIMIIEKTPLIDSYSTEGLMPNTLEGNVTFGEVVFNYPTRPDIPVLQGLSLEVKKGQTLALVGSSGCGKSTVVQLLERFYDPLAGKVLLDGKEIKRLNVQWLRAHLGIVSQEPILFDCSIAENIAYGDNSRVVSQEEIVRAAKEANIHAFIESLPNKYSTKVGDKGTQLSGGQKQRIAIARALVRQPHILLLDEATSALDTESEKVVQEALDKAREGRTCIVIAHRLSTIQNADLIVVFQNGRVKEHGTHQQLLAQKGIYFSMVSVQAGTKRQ

For `CN1CCN(c2ccc3nc(-c4c(N)c5c(F)cccc5[nH]c4=O)[nH]c3c2)CC1` [Compound 1, 4-amino-5-fluoro-3-[6-(4-methyl-piperazin-1-yl)-1H-benzimidazol-2-yl]-1H-quinolin-2-one], the MST ([1]; 20 mg/kg cyclic, 7 days on/7 days off, 5 cycles) was 118 days, the “MV4;11 cells in BM (leukemic burden)” value ([1]; 20 mg/kg daily over 25 days, flow cytometry) was less than 1% and the “increased life span (ILS)” value ([1]; 20 mg/kg daily, vs vehicle) was 163%. The TGI ([2]; 100 mg/kg/d, day 8) was 48%, the minimum effective dose ([2]; day 8, p<0.01) was 100 mg/kg/day and the “treated animals with regression and/or disease stabilization” value [3] was 90-100%. The “tumor growth inhibition (TGI)” value ([4]; MV4;11, 1 mg/kg/d oral, after 2 weeks of dosing) was 23%, the “number of CR” value ([4]; MV4;11, 30 mg/kg daily, schedule study) was 1 and the TGI ([4]; MV4;11, 30 mg/kg, intermittent dosage regimens) was greater than 94%. For the same compound, the “complete responders (CR)” value [4, 12] was 1, the “tumor responses (regression)” value [4, 12] was 9110 and the “PRs durable for 40 days after cessation of dosing” value ([4]; MV4;11, after 50 days of 30 mg/kg/d) was “approximately 50%”. The “doses giving significant tumor growth inhibition” value ([4]; MV4;11 tumors) was greater than 5 mg/kg/day, the “minimum statistically effective dose” value ([4]; MV4;11 tumors, p<0.01 vs. Vehicle) was 1 mg/kg/day and the complete responses [4, 13] was 15%. For the same compound, the “minor responses or remained stable” value [4, 13] was 15%, the partial responses [4, 13] was 70% and the “time until tumor regressions were evident” value ([4]; large MV4;11 tumors, 30 mg/kg/d) was 3 to 5 days. The “number of CR, second cycle” value ([4]; ten re-grown MV4;11 tumors re-treated with 30 mg/kg/d for 60 days) was 2, the “patients with stable disease (SD) at their first evaluation” value ([5]; 7/22 patients) was 32% and the “patients with SD for greater than 4 months” value ([5]; in vivo) was 4 patients. The “Anorexia, drug-related clinical adverse events ≥G2” value [6] was 2, the “Hypertension (DLT), drug-related clinical adverse events ≥G2” value [6] was 2 (1 G3) and the P-GP substrate [7] was “not a P-GP substrate”. For the same compound, the inhibition at 10 mg/kg ([8]; MV4-11, read-out: inhibition of STAT5 phosphorylation in tumors, 10 mg/kg/d x 5 days, 8 hour post dose (maximum)) was 90%, the inhibition at 10 mg/kg ([8]; MV4-11, read-out: inhibition of STAT5 phosphorylation in tumors, 10 mg/kg/d x 5 days, 24 hours) was 85% and the inhibition at 10 mg/kg ([8]; MV4-11, read-out: inhibition of p-STAT5 in tumors, 10 mg/kg/d x 5 days, 48 hours post dose) was 60%. The “plasma exposure (Cmax, AUC) versus dose” value [9] was “increases proportionally with dose”.

For `C=C(Br)C(=O)Nc1cc(C(=O)Nc2cc(C(=O)Nc3cc(C(=O)Nc4cc(C(=O)NCCNC(=N)N)n(C)c4)n(C)c3)n(C)c2)n(C)c1` [Brostallicin], the “higher activity in melphalan-resistant L1210 than in the parental line” value [10] is given as 3 fold, the IC50 ([10]; melphalan-resistant L1210) is given as 0.46 ng/mL (≈ 0.636 nM) and the IC50 [11] is given as 1.45 ng/mL (≈ 2 nM).
